This note sets out measurements from ChEMBL document CHEMBL5154740, “Novel Aurora A and Protein Kinase C (α, β1, β2, and θ) Multitarget Inhibitors: Impact of Selenium Atoms on the Potency and Selectivity” (J Med Chem, 2022).

Test [1] deals with T1, Aurora kinase A (Homo sapiens) (UniProt O14965).
T1 sequence (whole entry): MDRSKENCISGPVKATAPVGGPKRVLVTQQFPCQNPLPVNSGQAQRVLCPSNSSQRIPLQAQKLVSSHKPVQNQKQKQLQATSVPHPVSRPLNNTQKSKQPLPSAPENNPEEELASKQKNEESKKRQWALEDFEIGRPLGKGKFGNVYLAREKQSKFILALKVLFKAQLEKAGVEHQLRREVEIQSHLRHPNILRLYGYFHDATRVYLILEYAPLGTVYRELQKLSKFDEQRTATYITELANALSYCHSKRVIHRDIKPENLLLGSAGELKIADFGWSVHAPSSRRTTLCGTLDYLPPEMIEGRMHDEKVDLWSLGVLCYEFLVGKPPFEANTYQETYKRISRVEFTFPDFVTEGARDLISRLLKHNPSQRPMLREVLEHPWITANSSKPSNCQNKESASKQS
Briefly: Inhibition of AURA (unknown origin) at 50 nM by Z'LYTE screening method relative to control.

Test [2] has as its target Aurora kinase B (Homo sapiens) (UniProt Q96GD4). Briefly: Inhibition of AURB (unknown origin) at 50 nM by Z'LYTE screening method relative to control.
For test [3], the target named is Protein kinase C alpha type (Homo sapiens) (UniProt P17252). The experiment in a line: Inhibition of PKCalpha (unknown origin) at 50 nM by Z'LYTE screening method relative to control.
Test [4] addresses Protein kinase C beta type (Homo sapiens) (UniProt P05771). Briefly: Inhibition of PKCbeta1 (unknown origin) at 50 nM by Z'LYTE screening method relative to control.
The target is the same in test [5]. Briefly: Inhibition of PKCbeta2 (unknown origin) at 50 nM by Z'LYTE screening method relative to control.
The target of test [6] is T2, Protein kinase C theta type (Homo sapiens, UniProt Q04759). Briefly: Inhibition of PKCtheta (unknown origin) at 50 nM by Z'LYTE screening method relative to control.
Target sequence in this assay (Q04759 whole entry, looked up): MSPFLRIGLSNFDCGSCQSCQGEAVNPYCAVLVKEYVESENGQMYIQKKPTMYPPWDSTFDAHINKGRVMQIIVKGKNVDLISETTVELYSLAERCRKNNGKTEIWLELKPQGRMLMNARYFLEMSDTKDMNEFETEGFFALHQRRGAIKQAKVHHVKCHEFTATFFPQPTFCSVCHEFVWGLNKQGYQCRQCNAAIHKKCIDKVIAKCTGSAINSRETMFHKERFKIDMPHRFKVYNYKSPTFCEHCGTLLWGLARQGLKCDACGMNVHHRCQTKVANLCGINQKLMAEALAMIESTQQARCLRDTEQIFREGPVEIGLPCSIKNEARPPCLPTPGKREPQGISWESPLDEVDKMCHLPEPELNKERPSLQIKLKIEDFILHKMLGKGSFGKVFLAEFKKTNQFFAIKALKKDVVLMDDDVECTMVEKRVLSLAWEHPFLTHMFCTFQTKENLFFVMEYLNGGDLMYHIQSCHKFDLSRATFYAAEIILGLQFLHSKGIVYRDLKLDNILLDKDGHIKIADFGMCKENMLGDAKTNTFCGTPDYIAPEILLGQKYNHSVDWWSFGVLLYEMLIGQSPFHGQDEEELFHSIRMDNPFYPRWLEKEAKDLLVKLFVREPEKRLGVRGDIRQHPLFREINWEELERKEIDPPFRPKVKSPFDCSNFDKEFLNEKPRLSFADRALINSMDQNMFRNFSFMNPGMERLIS
The test system of a further test is MDA-MB-231. Briefly: Cytotoxicity against human MDA-MB-231/M cells assessed as reduction in cell viability incubated for 96 hrs by MTT assay. It is filed as functional, cell-based. Conditions: MDA-MB-231, 96 h. In general terms: Formazan colour is commonly taken as a measure of viable cells.
The subject of the next test is 4T1. Briefly: Cytotoxicity against mouse 4T1 cells assessed as reduction in cell viability incubated for 96 hrs by MTT assay. It is filed as functional, cell-based. Conditions: 4T1, 96 h.
In test [7] the target is Protein kinase C eta type (Homo sapiens, UniProt P24723). Briefly: Inhibition of PKCeta (unknown origin) by IMAP kinase assay.
Protein kinase C eta type, sequence (P24723 whole entry): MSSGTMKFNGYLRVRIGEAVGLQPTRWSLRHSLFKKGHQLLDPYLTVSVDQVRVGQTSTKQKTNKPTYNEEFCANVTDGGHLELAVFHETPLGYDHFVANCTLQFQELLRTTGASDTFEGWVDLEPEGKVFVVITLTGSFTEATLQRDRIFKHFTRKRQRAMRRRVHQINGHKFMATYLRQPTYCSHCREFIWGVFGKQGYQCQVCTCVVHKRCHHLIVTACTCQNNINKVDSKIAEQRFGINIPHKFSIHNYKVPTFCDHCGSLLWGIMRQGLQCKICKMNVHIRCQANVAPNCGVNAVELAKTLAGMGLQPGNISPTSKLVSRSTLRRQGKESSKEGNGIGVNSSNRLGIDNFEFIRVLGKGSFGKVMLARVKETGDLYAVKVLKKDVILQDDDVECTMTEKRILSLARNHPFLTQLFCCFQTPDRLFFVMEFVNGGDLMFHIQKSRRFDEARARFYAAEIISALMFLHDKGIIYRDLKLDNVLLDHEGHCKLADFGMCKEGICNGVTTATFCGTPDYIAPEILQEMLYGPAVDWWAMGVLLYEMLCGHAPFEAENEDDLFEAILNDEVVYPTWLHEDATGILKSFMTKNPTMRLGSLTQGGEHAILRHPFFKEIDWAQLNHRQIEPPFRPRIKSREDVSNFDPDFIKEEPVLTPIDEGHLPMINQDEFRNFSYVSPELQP
Test [8] concerns the target Protein kinase C alpha type (Homo sapiens) (UniProt P17252). Briefly: Inhibition of PKCalpha (unknown origin) by Z'LYTE screening method relative to control. Particulars: concentration not given here.
Test [9] addresses Protein kinase C beta type (Homo sapiens) (UniProt P05771). The experiment in a line: Inhibition of PKCbeta1 (unknown origin) by Z'LYTE screening method relative to control. Particulars: concentration not given here.
For test [10] the target is unchanged. The experiment in a line: Inhibition of PKCbeta2 (unknown origin) by Z'LYTE screening method relative to control. Particulars: concentration not given here.
Test [11] deals with Proto-oncogene tyrosine-protein kinase receptor Ret (Homo sapiens) (UniProt P07949). The experiment in a line: Inhibition of RET (unknown origin) by Z'LYTE screening method relative to control. Particulars: concentration not given here.
Proto-oncogene tyrosine-protein kinase receptor Ret (Homo sapiens), sequence (P07949 whole entry): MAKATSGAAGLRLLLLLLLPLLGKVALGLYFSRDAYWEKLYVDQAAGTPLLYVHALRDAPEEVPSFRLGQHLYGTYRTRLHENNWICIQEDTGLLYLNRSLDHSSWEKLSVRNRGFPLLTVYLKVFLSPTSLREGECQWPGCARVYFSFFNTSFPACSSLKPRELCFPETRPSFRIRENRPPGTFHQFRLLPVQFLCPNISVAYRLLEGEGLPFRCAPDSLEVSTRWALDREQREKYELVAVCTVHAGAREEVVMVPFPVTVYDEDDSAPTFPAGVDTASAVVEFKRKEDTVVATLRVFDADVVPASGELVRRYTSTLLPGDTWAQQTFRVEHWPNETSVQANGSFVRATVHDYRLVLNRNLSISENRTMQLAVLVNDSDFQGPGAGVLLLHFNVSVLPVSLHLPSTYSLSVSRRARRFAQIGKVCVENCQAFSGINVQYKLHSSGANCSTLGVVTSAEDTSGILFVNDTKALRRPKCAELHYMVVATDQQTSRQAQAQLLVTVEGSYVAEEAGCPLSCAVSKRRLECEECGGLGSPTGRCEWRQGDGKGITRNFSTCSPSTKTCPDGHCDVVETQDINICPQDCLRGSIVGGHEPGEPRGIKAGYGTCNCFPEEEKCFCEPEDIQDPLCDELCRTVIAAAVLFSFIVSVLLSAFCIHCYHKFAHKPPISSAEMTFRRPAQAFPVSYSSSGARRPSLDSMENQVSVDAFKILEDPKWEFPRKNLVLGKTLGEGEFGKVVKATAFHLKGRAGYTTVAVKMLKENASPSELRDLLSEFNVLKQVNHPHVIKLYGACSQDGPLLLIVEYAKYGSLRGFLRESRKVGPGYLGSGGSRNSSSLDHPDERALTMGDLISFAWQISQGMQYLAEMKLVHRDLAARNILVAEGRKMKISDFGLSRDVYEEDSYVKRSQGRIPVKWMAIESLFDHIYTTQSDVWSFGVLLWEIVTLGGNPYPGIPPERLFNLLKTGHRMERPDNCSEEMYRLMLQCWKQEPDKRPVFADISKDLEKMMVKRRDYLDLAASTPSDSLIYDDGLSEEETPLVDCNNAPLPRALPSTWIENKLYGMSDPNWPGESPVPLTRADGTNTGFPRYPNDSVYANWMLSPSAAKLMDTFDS
The target in test [12] is Serine/threonine-protein kinase D3 (Homo sapiens, UniProt O94806). Briefly: Inhibition of PKCnu (unknown origin) by IMAP kinase assay.
Test [13] deals with Protein kinase C epsilon type (Homo sapiens, UniProt Q02156). Briefly: Inhibition of PKCepsilon (unknown origin) by IMAP kinase assay.
The target in test [14] is T2, Protein kinase C theta type. The experiment in a line: Inhibition of full length human PKCtheta using 5-FAM-RFARKGSLRQKNV-OH peptide substrate incubated for 30 mins by IMAP kinase assay.
Target sequence in this assay (Q04759 whole entry): as the sequence (Q04759 whole entry, looked up) above
Test [15] deals with T3, Protein kinase C epsilon type (Homo sapiens) (UniProt Q02156).
T3 sequence (whole entry): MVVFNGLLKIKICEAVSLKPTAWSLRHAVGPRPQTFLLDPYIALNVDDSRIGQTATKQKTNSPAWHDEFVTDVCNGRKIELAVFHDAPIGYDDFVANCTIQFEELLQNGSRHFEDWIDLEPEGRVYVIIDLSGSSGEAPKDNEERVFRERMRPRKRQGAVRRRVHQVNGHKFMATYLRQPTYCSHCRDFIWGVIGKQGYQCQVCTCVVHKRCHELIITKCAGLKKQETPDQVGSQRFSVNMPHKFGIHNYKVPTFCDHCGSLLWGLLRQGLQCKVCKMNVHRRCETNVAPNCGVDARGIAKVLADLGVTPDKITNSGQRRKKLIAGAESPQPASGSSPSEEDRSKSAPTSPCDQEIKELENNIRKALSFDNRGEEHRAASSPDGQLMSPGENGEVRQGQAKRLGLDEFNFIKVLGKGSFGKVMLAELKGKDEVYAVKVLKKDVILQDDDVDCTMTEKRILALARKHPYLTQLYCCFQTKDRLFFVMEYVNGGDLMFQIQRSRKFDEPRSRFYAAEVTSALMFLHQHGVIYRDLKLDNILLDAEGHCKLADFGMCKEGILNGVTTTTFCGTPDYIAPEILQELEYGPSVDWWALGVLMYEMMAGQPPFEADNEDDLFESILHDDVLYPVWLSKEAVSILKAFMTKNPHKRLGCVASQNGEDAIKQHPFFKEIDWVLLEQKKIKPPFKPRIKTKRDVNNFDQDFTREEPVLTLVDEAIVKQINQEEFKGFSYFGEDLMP
The experiment in a line: Inhibition of PKCepsilon (unknown origin) by Z'LYTE screening method relative to control. Conditions: concentration not given here.

Test [16] has as its target T4, Serine/threonine-protein kinase D1 (Homo sapiens) (UniProt Q15139).
T4 sequence (whole entry): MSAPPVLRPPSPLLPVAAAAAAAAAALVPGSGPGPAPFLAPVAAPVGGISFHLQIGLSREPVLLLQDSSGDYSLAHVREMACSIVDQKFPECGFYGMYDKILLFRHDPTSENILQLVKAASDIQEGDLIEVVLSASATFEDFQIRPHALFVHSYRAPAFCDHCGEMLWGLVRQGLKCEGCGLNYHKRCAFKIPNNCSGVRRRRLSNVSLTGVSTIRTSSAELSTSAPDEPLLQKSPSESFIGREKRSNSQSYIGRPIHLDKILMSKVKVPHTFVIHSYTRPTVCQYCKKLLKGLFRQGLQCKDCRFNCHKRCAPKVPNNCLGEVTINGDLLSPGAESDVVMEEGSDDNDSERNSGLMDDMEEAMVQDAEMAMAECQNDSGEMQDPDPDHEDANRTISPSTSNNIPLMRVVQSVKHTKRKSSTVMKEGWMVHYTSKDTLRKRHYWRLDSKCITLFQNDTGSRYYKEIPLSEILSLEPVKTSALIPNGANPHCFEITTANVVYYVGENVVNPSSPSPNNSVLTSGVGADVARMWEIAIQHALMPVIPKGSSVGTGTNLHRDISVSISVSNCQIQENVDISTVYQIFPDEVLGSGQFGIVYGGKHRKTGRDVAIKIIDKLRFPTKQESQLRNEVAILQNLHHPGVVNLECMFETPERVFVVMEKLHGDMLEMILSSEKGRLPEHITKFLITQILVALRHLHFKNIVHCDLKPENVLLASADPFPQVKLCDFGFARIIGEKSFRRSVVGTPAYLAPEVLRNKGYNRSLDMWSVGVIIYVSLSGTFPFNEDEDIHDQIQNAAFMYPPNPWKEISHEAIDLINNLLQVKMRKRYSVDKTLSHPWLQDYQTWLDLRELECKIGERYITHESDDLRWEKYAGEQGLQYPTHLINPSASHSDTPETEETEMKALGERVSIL
The experiment in a line: Inhibition of PKCmu (unknown origin) by Z'LYTE screening method relative to control. Conditions: concentration not given here.

For test [17], the target named is T5, Serine/threonine-protein kinase D3 (Homo sapiens) (UniProt O94806).
T5 sequence (whole entry): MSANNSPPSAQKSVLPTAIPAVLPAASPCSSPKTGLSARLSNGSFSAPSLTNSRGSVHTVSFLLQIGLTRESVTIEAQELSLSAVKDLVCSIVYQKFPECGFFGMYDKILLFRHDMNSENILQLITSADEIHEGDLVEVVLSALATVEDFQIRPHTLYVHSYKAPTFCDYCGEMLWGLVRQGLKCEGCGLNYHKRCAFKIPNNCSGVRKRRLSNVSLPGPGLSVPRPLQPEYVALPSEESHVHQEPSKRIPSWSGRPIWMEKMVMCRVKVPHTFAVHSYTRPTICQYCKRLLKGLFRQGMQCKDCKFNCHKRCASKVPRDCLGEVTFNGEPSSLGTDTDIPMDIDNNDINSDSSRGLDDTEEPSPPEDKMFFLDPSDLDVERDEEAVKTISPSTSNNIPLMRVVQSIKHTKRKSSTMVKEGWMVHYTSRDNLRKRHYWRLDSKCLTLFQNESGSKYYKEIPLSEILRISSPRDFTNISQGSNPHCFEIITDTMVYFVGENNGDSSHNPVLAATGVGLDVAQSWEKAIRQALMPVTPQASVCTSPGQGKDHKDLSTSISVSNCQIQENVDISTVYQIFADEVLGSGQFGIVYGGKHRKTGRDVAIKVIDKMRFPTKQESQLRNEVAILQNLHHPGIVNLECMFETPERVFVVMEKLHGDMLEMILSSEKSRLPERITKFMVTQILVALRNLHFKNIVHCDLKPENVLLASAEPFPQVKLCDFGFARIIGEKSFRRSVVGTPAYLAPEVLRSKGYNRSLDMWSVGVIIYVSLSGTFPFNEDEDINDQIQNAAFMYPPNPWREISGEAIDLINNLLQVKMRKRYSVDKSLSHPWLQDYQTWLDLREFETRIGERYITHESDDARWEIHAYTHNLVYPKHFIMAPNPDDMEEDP
The experiment in a line: Inhibition of PKCnu (unknown origin) by Z'LYTE screening method relative to control. Particulars: concentration not given here.

The target of test [18] is T6, Protein kinase C zeta type (Homo sapiens) (UniProt Q05513).
T6 sequence (whole entry): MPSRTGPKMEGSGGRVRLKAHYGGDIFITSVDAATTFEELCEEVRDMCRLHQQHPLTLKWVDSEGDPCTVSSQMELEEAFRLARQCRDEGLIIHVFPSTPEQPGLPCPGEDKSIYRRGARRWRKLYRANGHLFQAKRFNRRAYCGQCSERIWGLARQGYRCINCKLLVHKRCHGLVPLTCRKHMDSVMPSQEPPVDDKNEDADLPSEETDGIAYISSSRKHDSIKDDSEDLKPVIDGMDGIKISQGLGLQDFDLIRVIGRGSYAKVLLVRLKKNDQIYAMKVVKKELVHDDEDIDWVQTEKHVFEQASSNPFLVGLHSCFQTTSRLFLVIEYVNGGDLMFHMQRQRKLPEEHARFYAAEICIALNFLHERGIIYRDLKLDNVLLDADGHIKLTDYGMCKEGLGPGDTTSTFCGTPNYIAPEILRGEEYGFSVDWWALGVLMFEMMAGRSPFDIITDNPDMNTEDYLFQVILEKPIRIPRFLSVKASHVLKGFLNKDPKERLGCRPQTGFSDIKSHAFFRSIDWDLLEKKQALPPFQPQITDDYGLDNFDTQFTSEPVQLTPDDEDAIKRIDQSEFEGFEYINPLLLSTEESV
Briefly: Inhibition of PKCzeta (unknown origin) by Z'LYTE screening method relative to control. Conditions: concentration not given here.

The next test has as its target Aurora kinase C (Homo sapiens, UniProt Q9UQB9). The experiment in a line: Inhibition of AURC (unknown origin).

The term inhibition denotes the relative decrease from the control value, in per cent. The low end stands for a weak effect, the high end for a strong effect. Usually IC50 stands for the concentration at which inhibition is half-maximal.

SMILES strings stand for the structures.

Protein kinase C beta type (Homo sapiens), sequence (P05771 2-671 limits assumed): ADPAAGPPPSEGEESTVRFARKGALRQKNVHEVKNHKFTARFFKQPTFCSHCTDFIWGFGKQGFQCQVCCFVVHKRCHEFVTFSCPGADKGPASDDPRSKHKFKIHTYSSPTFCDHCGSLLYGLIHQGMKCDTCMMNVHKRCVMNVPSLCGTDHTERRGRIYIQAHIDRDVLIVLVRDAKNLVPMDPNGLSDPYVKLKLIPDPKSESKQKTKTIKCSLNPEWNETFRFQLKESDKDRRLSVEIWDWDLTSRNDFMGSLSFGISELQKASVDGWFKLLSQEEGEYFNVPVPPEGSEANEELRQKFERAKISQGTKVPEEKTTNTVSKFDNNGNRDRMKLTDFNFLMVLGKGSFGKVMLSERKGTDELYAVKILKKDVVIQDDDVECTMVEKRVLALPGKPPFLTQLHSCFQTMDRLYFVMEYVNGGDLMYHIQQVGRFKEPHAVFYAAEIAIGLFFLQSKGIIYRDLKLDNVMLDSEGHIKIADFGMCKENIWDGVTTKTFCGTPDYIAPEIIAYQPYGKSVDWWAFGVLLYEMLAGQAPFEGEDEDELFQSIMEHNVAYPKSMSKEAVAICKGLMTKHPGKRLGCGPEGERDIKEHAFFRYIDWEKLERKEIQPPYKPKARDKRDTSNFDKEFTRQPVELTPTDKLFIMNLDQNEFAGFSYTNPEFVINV
Aurora kinase B (Homo sapiens), sequence (Q96GD4 whole entry): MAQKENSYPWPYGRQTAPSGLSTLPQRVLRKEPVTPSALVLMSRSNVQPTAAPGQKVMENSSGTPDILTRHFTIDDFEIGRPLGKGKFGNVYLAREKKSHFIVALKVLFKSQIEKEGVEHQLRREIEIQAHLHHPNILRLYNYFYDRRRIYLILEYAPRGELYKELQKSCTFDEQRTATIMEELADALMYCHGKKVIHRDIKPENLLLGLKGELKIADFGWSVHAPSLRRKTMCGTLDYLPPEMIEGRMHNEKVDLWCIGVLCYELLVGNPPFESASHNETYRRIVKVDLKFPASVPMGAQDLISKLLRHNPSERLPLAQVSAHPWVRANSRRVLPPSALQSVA
Aurora kinase C, sequence (Q9UQB9 whole entry): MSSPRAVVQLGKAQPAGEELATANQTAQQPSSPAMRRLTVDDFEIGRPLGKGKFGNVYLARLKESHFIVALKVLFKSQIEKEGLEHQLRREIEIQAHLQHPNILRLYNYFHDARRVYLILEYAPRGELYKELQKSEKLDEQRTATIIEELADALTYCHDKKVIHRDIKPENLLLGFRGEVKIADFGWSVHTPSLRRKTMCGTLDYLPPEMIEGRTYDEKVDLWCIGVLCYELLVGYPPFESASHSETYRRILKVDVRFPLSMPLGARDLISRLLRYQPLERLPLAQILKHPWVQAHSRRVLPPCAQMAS

`O=c1c2ccccc2sn1-c1nc(NC2CCSC2)c2nc[nH]c2n1` (configuration not stated): the inhibition stood at 69% in test [1]; 7% in [2]; 92% in test [3]; 85% in [4]; 81% in [5]; 97% in [6]. Besides, the half-maximal inhibitory concentration (IC50) turned out to be 10300 nM in the test with MDA-MB-231 and 12200 nM in the test with 4T1.

For the compound `O=c1c2ccccc2sn1-c1nc(NC2CCCC2)c2nc[nH]c2n1`, the inhibition in test [1] was 58%; in test [2], 7%; in test [3], 65%; in test [4], 40%; in test [5], 13%; in test [6] it was 60%. Besides, the IC50 was 29200 nM in the test on MDA-MB-231 and 25600 nM in the test with 4T1.

In turn, `O=C(N[C@@H]1CNCCC[C@H]1OC(=O)c1cc(O)c(C(=O)c2c(O)cccc2C(=O)O)c(O)c1)c1ccc(O)cc1` [BALANOL] registered a half-maximal inhibitory concentration (IC50) in test [7] of 4 nM.

Regarding `Cc1cc(Nc2cc(N3CCN(C)CC3)nc(Sc3ccc(NC(=O)C4CC4)cc3)n2)n[nH]1`, the inhibition in test [8] was found to be 8%; in [9], 6%; in test [10], 2%; in [11], 62%.

On to `CN1CCN(c2nc(C3=C(c4c[nH]c5ccccc45)C(=O)NC3=O)c3ccccc3n2)CC1` [SOTRASTAURIN], for which the values for the IC50 in test [12], in test [13] and in test [14] were 2.1 nM, 3.2 nM and 0.22 nM, respectively. The inhibition is 100% in test [8]; 98% in test [9]; 98% in test [10]; 76% in test [15]; 92% in test [16]; 76% in [17]. Besides, in test [18], the inhibition amounted to 80%.

On Aurora kinase C, `O=C(Nc1cccc(Cl)c1)Nc1ncc(CCNc2ncnc3ccsc23)s1` [SNS-314] yielded an IC50 of 3 nM.
